The source of these data is paper PMC4858151, “Phosphorylation of Human Choline Kinase Beta by Protein Kinase A: Its Impact on Activity and Inhibition” (PLoS ONE, 2016).

The target of this test is T1, choline kinase beta (CKβ) (Homo sapiens, UniProt Q9Y259).
T1 construct: gene CHKB; recombinant CKβ, in vitro phosphorylated by PKA (Ser39/Ser40)
The experiment in a line: PK-LDH coupled enzyme assay, IC50 at […] choline converted to Ki. It is filed as biochemical.

T1 sequence (Q9Y259 2-395): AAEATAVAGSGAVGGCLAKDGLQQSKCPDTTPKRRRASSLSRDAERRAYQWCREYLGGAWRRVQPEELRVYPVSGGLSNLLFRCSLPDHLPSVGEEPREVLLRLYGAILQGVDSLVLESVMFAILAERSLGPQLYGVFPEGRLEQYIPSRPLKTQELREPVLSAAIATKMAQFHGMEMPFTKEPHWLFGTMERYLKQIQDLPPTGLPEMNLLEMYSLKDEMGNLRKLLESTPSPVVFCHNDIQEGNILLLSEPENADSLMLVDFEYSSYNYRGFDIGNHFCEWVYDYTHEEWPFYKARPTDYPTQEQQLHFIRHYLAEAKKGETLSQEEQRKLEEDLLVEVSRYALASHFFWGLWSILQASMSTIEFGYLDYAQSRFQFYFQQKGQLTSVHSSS

A word on the Ki: it is a measure of affinity in units of concentration, obtained from inhibition or displacement. Molecule `C[N+]1(C)CCOC(O)(c2ccc(-c3ccc(C4(O)C[N+](C)(C)CCO4)cc3)cc2)C1` (stereo not shown) [HC-3, Hemicholinium-3] had a Ki of 4.7 µM.
